From patent publication US7192763B2, “Streptomyces anulatus microorganism and a process for producing the substance GM-95” (Sosei Co., Ltd., priority 2001, dated 2007)

Tests used:
[1] = test system: OVCAR-3 (human ovarian cancer); experiment: Tumor cell growth inhibition (crystal violet), OVCAR-3; assay type: cell-based; conditions: 72 hours, read-out: Concentrations for 50% growth inhibition of various tumor cells (IC50)
Procedure: (§1) Tumor cells described in Table 5 were suspended in RPMI1640 medium containing 10% fetal calf serum, plated into culture plates (38 mm) at the density of in 2×10^3 cells each, and cultured in 37° C., 5% CO2 incubator overnight. Subsequently, experimental agents (the compound of the invention and 5-fluorouracil) diluted to various concentrations using RPMI1640 medium containing 10% fetal calf serum were added to each plate, and further cultured for 72 hours. After the cell culture was completed, those cells were fixed with 25% glutalaldehyde for 15 minutes and washed with water three times. After that, the cells were stained with 0.05% crystal violet diluted in 20% methanol aqueous solution, washed with water three times and then dried. The crystal violet were extracted with 100 μl of 0.05M sodium dihydrogenphosphate/ethanol (1/1(v/v)), their absorbance at 540 nm were determined by an automatic spectroscope. “IC50” was defined as the concentration required for a 50% reduction in growth compared to the control absorbance.

[2] = test system: PC-3 (human prostate cancer); experiment: Tumor cell growth inhibition (crystal violet), PC-3; assay type: cell-based; conditions: 72 hours, read-out: Concentrations for 50% growth inhibition of various tumor cells (IC50)
Procedure: as §1

[3] = test system: SKOV-3 (human ovarian cancer); experiment: Tumor cell growth inhibition (crystal violet), SKOV-3; assay type: cell-based; conditions: SK-OV-3, 72 hours, read-out: Concentrations for 50% growth inhibition of various tumor cells (IC50)
Procedure: as §1

[4] = test system: MCF-7 (human breast cancer); experiment: Tumor cell growth inhibition (crystal violet), MCF-7; assay type: cell-based; conditions: MCF7, 72 hours, read-out: Concentrations for 50% growth inhibition of various tumor cells (IC50)
Procedure: as §1

[5] = test system: ZR75-1 (human breast cancer); experiment: Tumor cell growth inhibition (crystal violet), ZR75-1; assay type: cell-based; conditions: ZR-75-1, 72 hours, read-out: Concentrations for 50% growth inhibition of various tumor cells (IC50)
Procedure: as §1

[6] = test system: PAN-3 (human pancreatic cancer); experiment: Tumor cell growth inhibition (crystal violet), PAN-3; assay type: cell-based; conditions: 72 hours, read-out: Concentrations for 50% growth inhibition of various tumor cells (IC50)
Procedure: as §1

[7] = test system: KM12C-SM (human colon cancer); experiment: Tumor cell growth inhibition (crystal violet), KM12C-SM; assay type: cell-based; conditions: 72 hours, read-out: Concentrations for 50% growth inhibition of various tumor cells (IC50)
Procedure: as §1

[8] = test system: A375SM (human melanoma); experiment: Tumor cell growth inhibition (crystal violet), A375SM; assay type: cell-based; conditions: A375-SM, 72 hours, read-out: Concentrations for 50% growth inhibition of various tumor cells (IC50)
Procedure: as §1

[9] = test system: TMK-1 (human gastric cancer); experiment: Tumor cell growth inhibition (crystal violet), TMK-1; assay type: cell-based; conditions: 72 hours, read-out: Concentrations for 50% growth inhibition of various tumor cells (IC50)
Procedure: as §1

[10] = test system: HT-29 (human colon cancer); experiment: Tumor cell growth inhibition (crystal violet), HT-29; assay type: cell-based; conditions: 72 hours, read-out: Concentrations for 50% growth inhibition of various tumor cells (IC50)
Procedure: as §1

[11] = test system: DLD-1 (human colon cancer); experiment: Tumor cell growth inhibition (crystal violet), DLD-1; assay type: cell-based; conditions: 72 hours, read-out: Concentrations for 50% growth inhibition of various tumor cells (IC50)
Procedure: as §1

[12] = test system: Renca (mouse renal cancer); experiment: Tumor cell growth inhibition (crystal violet), Renca; assay type: cell-based; conditions: 72 hours, read-out: Concentrations for 50% growth inhibition of various tumor cells (IC50)
Procedure: as §1

[13] = biological target: T1, telomerase (Homo sapiens, UniProt O14746); experiment: Telomerase-inhibiting activity using cell extracts containing telomerase; assay type: biochemical; conditions: read-out: concentration for inhibiting telomerase activity by 50% (IC50) in cell extracts
T1 construct: using cell extracts containing telomerase according to the conventional manner; endogenous in cells
Description: The compound of the invention was subjected to the examination of telomerase-inhibiting activity using cell extracts containing telomerase according to the conventional manner, to provide the concentration for inhibiting telomerase activity by 50% (IC50) in cell extracts.

[14] = Solubilities in solvents; assay type: physicochemical
Description: Insoluble in water and in acetone.
Soluble in a mixture of chloroform:methanol=1:1 • 8) Color of the substance: white yellowish powders • 9) Nuclear magnetic resonance spectrum

T1 sequence (O14746 whole entry): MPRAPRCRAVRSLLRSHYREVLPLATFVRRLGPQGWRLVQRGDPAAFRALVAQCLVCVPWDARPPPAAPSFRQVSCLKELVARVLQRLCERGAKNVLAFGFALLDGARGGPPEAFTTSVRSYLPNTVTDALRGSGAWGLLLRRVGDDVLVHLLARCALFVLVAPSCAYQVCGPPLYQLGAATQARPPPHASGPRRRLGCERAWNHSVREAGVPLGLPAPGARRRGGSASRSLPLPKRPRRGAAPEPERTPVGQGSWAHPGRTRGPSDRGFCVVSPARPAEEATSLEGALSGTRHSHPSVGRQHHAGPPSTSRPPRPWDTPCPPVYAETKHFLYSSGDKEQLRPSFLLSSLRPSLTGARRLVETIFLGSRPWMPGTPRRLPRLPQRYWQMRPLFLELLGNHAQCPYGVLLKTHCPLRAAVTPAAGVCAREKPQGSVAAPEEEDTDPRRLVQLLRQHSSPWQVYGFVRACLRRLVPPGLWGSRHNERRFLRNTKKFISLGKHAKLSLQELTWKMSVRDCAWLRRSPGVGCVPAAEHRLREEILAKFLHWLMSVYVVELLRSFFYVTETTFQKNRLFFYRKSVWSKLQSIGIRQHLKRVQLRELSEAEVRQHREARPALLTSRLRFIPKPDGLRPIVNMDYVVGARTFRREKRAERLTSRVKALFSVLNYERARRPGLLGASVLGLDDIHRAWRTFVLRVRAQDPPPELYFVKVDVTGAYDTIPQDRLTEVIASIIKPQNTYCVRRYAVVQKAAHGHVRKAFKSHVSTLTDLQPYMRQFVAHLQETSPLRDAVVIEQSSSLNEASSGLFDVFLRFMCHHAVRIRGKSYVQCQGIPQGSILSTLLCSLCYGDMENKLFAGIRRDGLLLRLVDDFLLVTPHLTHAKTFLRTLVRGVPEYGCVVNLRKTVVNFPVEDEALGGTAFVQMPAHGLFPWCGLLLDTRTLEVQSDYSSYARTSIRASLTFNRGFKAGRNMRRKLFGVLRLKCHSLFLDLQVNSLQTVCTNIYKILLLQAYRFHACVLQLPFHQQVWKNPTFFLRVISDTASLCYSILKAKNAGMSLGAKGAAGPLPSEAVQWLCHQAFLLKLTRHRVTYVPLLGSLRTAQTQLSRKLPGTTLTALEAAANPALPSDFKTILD

Row | IC50 [1] | IC50 [2] | IC50 [3] | IC50 [4] | IC50 [5] | IC50 [6] | IC50 [7] | IC50 [8] | IC50 [9] | IC50 [10] | IC50 [11] | IC50 [12] | IC50 [13] | Solubility in acetone ([14]; acetone) | Solubility in a mixture of chloroform:methanol=1:1 ([14]; chloroform:methanol=1:1) | Solubility in water ([14]; water) | SMILES
1 | 3.41 µM | 8.82 µM | 3.73 µM | 7.73 µM | 4.04 µM | 7.09 µM | 3.74 µM | 7.04 µM | 3.75 µM | 7.1 µM | 6.2 µM | 0.97 µM | 0.05 µM | Insoluble | Soluble | Insoluble | Cc1oc2nc1-c1nc(co1)-c1nc(co1)-c1nc(co1)-c1nc(co1)-c1nc(co1)C1=NC(CS1)c1nc-2c(C)o1 (stereo not shown) [Substance GM-95]
2 | 0.37 µM | 5.7 µM | 7.84 µM | 1.12 µM | 3.63 µM | 8.82 µM | 1.32 µM | 2.89 µM | 0.33 µM | 2.1 µM | 5.5 µM | 0.58 µM |  |  |  |  | O=c1[nH]cc(F)c(=O)[nH]1 [5-fluorouracil, reference compound]
